This assay concerns the target T1, TRAF1.
T1 construct: TRAF1 protein amine-coupled to carboxylated SPR chip
In words: surface plasmon resonance, TRAF1 immobilized. The assay is classed as binding. Particulars: PBST running buffer; analyte 0-500 μM; Fc2-Fc1 double-referenced.

By Kd is commonly meant the concentration at which binding is half-saturated. Read a low Kd as higher affinity. For `N[C@@H](CCS)C(=O)O` [L-homocysteine], binding was characterised by a dissociation constant (Kd) of 246 µM.

(Values after paper PMC13188182, “Role of DZ2002 in reducing corneal graft rejection in rats by influencing Th17 activation via inhibition of the PI3K/AKT pathway and downregulation of TRAF1” (Open Life Sciences, 2026).)
